Test results: ChEMBL document CHEMBL5634079, “Development of novel celastrol-ligustrazine hybrids as potent peroxiredoxin 1 inhibitors against lung cancer” (Eur J Med Chem, 2023)
pIC50: −log10 of the molar value. The source made the active and inactive calls. The rule behind the calls is not given here.

Legend:
[1] = Toxicity in C57BL/6J mouse implanted with mouse Lewis lung carcinoma cell line assessed as spleen damage at 0.5 to 1 mg/kg, ip administered every day for 19 days; assay type: organism-based; conditions: in vivo, 456 h, dose 0.5-1 mg/kg, time 19 day
[2] = system: A549; test: Downregulation of PRDX5 level in human A549 cells at 2 to 4 uM by Western blot analysis; assay type: functional, cell-based; conditions: dose 2-4 µM
[3] = system: A549; test: Downregulation of PRDX4 level in human A549 cells at 2 to 4 uM by Western blot analysis; assay type: functional, cell-based; conditions: dose 2-4 µM
[4] = system: A549; test: Downregulation of PRDX3 level in human A549 cells at 2 to 4 uM by Western blot analysis; assay type: functional, cell-based; conditions: dose 2-4 µM
[5] = system: Lewis lung carcinoma; test: Antitumor activity against mouse Lewis lung carcinoma cell line implanted in C57BL/6J mouse assessed as tumor cell agglutination at 0.5 to 1 mg/kg, ip administered every day for 19 days by H and E staining based analysis; assay type: functional, organism-based; conditions: dose 0.5-1 mg/kg, time 19.0 day
[6] = system: A549; test: Induction of apoptosis in human A549 cells assessed as late apoptotic cells at 2 uM incubated for 48 hrs by Annexin V-FITC and PI staining based flow cytometric analysis (reference value: 0.73%); assay type: functional
[7] = system: A549; test: Induction of apoptosis in human A549 cells assessed as decrease in PARP level at 2 to 4 uM by Western blot analysis; assay type: functional, cell-based; conditions: dose 2-4 µM
[8] = system: A549; test: Induction of apoptosis in human A549 cells assessed as necrotic cells at 4 uM incubated for 48 hrs by Annexin V-FITC and PI staining based flow cytometric analysis (reference value: 4.68%); assay type: functional
[9] = Toxicity in C57BL/6J mouse implanted with mouse Lewis lung carcinoma cell line assessed as decrease in body weight at 0.5 to 1 mg/kg, ip administered every day for 19 days; assay type: organism-based; conditions: in vivo, 456 h, dose 0.5-1 mg/kg, time 19 day
[10] = system: NCI-H1975; test: Antiproliferative activity against human NCI-H1975 cells assessed as inhibition of cell growth incubated for 48 hrs by MTT assay; assay type: functional, cell-based; conditions: NCI-H1975, 48 h
[11] = Toxicity in C57BL/6J mouse implanted with mouse Lewis lung carcinoma cell line assessed as heart damage at 0.5 to 1 mg/kg, ip administered every day for 19 days; assay type: organism-based; conditions: in vivo, 456 h, dose 0.5-1 mg/kg, time 19 day
[12] = system: Lewis lung carcinoma; test: Antitumor activity against mouse Lewis lung carcinoma cell line implanted in C57BL/6J mouse assessed as nuclear chromatin marginalization at 0.5 to 1 mg/kg, ip administered every day for 19 days by H and E staining based analysis; assay type: functional, organism-based; conditions: dose 0.5-1 mg/kg, time 19.0 day

pIC50 [10]: 5.70
SMILES: CC1=C(OC(=O)/C=C/c2ccccc2)C(=O)C=C2C1=CC=C1[C@@]2(C)CC[C@@]2(C)[C@@H]3C[C@](C)(C(=O)NCc4nc(C)c(C)nc4C)CC[C@]3(C)CC[C@]12C
Activity [1]: Non-Toxic
Activity [2]: Active
Activity [3]: Active
Activity [4]: Active
Activity [5]: Active
Activity [6]: 4.91%
Activity [7]: Active
Activity [8]: 3.04%
Activity [9]: Non-Toxic
Activity [11]: Non-Toxic
Activity [12]: Active
